The target in assay [1] is [GSPT1]-[compound of formula (I)]-[CRBN/DDB1] complex (Homo sapiens, UniProt P15170+Q96SW2). The experiment in a line: HTRF ternary complex assay (GSPT1). In kind it is binding. The conditions noted are these: read-out: HTRF ternary complex Average pEC50 by molecule (converted). As to the method:
The effect of the molecular glue compounds of the invention on the formation of a ternary complex composed of [GSPT1]-[compound of formula (I)]-[CRBN/DDB1] was investigated.
Mix solution of proteins and reagents was prepared: • 48 nM GSPT1, 52.8 nM 6×His-CRBN/DDB1, 3 nM of Streptavidin-Eu cryptate ([…]) and 6.67 nM of Anti-6×his-d2 ([…]) was prepared in PPI Europium detection buffer (purchased from Cisbio) with 1 mM DTT.
The tested compounds in dose-response were dispensed onto a white 384-well low volume plate (Greiner, 784075). DMSO was backfilled to all wells, resulting in a final DMSO content of 0.5%. Wells containing only DMSO served as background.
The plate was sealed with transparent film and shaken using a VibroTurbulator for 60 sec at level 3.
The plate was then spun down shortly (10 sec, 1000 rcf) and incubated at 25° C. for 180 min.
The read-out was performed with plate reader (Pherastar, BMG Labtech) in time resolved fluorescence mode. Filter settings: TR 337 665 620.
The results were analyzed as follows: • 1) an average of fluorescence for background signal was calculated and used as a negative control; • 2) raw fluorescence values for tested compounds were normalized against negative controls; • 3) saturation curve was fitted to specific binding with Hill slope model; • 4) EC50 and pEC50 values were determined.
For orientation: TR-FRET usually uses a lanthanide donor and a delayed reading to cut background.

Assay [2] concerns the target T1, [IKZF1 ZF2]-[compound]-[CRBN/DDB1] ternary complex (Homo sapiens, UniProt Q13422+Q96SW2).
T1 construct: IKZF1 ZF2
Put plainly: AlphaLISA assay for off-target recruitment detection, IKZF1 ZF2. In kind it is binding. The conditions noted are these: 1 μM compound; normalized to Lenalidomide; read-out: Normalized ternary complex response, IKZF1 ZF2. The essentials:
(§1)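 Neo-substrate with 40 μg/ml donor beads and 200 nM 6×His-CRBN/DDB1 with 40 μg/ml anti-His acceptor beads were each prepared in PBS pH 7.4 with Tween-20 and 1 mM DTT, preincubated 30 min at RT, then mixed. Compounds at 2% DMSO were incubated 30 min at 25 °C, read at 680/615 nm, and normalised between DMSO background and reference glue maximum.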

Assay [3] concerns the target [CK1α]-[compound]-[CRBN/DDB1] ternary complex (Homo sapiens, UniProt P48729+Q96SW2). The experiment in a line: AlphaLISA assay for off-target recruitment detection, CK1α. The settings on record: 1 μM compound; normalized to FPFT-2216; read-out: Normalized ternary complex response, CK1α. Format: binding. Put shortly: as §1
Assay [4] has as its target CRBN/DDB1 protein complex (Homo sapiens, UniProt Q96SW2). The experiment in a line: CRBN displacement TR-FRET assay. The conditions noted are these: Thalidomide-Red tracer, 6×His-CRBN/DDB1; read-out: CRBN binding Ki. As for the experimental part: CRBN/DDB1 protein complex was mixed with Thalidomide-Red and a compound to be tested (the “test compound”). The test solution contained PPI Europium detection buffer, 1 mM DTT, 6.8 nM Thalidomide-Red (the tracer), 5 nM 6×His-CRBN/DDB1 protein, 0.5 nM Anti-6× His-Eu cryptate, 1% DMSO. The test solution was added to a 384-well assay plate.
The plate was spun-down (1 min, 1000 rpm, 22° C.) and then shaken using a VibroTurbulator for 30 sec at room temperature (20-25° C.), with the frequency set to level 10. The assay plate with protein and the tracer was incubated for 180 min at room temperature (20-25° C.) prior to read-out with a plate reader. The read-out was performed with plate reader (Pherastar, BMG Labtech) in time resolved fluorescence mode. Filter settings: TR 337 665 620.
The CRBN displacement TR-FRET experiment was carried out with various concentrations of the test compounds in order to measure Ki values.
The Ki values of competitive inhibitors were calculated using the equation based on the IC50 values of relationship between compound concentration and measured […], the Kd value of the Thalidomide-Red and CRBN/DDB1 complex, and the concentrations of the protein and the tracer in the displacement assay (as described by Cheng and Prusoff, Biochem Pharmacol 1973; 22:3099-3108).

In assay [5] the target is T2, [IKZF2 ZF2]-[compound]-[CRBN/DDB1] ternary complex (Homo sapiens, UniProt Q96SW2+Q9UKS7).
T2 construct: IKZF2 ZF2
T2 sequence (Q9UKS7 140-162 limits assumed): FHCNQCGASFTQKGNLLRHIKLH
T2 sequence (Q96SW2 whole entry): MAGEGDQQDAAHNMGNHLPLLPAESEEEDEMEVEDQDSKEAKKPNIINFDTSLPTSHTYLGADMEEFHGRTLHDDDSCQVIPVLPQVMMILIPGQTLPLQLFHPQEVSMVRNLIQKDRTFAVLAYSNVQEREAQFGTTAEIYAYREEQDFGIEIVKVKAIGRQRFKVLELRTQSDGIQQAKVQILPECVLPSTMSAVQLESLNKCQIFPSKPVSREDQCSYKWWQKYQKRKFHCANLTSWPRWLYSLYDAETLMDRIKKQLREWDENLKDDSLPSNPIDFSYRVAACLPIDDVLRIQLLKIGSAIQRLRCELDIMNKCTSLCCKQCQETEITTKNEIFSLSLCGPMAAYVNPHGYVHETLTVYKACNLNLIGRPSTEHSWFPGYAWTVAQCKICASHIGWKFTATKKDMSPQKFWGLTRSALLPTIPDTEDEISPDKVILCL
T2 sequence (Q16531 whole entry partner): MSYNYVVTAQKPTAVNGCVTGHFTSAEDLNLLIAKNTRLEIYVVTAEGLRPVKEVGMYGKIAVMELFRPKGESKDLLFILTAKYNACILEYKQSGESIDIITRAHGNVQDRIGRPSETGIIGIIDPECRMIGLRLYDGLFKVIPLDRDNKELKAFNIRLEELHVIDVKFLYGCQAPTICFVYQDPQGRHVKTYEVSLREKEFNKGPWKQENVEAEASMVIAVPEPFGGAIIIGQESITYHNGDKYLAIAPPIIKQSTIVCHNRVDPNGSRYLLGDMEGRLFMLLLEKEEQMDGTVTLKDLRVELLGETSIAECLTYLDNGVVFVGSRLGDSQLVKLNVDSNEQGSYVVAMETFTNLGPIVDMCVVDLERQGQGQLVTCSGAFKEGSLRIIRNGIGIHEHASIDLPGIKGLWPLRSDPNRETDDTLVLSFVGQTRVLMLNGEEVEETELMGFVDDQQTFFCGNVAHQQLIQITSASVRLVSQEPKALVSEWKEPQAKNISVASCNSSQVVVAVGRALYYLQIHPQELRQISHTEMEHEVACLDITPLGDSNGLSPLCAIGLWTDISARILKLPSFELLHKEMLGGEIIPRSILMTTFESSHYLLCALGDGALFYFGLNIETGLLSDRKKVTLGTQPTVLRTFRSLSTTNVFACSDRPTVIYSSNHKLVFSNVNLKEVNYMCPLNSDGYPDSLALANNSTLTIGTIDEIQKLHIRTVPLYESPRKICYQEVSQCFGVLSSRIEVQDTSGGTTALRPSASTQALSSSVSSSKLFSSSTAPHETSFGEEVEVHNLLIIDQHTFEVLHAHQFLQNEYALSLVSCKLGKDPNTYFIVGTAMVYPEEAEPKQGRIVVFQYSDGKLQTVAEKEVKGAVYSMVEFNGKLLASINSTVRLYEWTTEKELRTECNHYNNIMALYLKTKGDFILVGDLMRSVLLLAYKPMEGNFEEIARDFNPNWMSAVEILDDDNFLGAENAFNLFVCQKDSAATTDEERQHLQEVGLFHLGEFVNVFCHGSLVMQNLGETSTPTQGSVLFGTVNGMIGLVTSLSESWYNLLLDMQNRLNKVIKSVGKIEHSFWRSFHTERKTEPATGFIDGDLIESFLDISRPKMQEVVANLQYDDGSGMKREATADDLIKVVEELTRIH
Put plainly: AlphaLISA assay for off-target recruitment detection, IKZF2 ZF2. Format: binding. The conditions noted are these: 1 μM compound; normalized to Helios modulator; read-out: Normalized ternary complex response, IKZF2 ZF2. The essentials: as §1

The next assay relates to GSPT1-HiBiT HEK293 cells. The experiment in a line: Cell Viability-CTG assay accompanying the Nano-Glo HiBiT assay. Format: cell-based. The settings on record: 6 hours treatment, viability of GSPT1-HiBiT HEK293 cells. As to the method: In parallel, the Cell Viability-CTG assay was performed to ensure that the potential decrease of the luminescent signal observed in the Nano-Glo HiBiT assay is a result of protein degradation and not a result of decreasing cell viability. For CTG assay accompanying the Nano-Glo HiBiT assay, cells were cultured, seeded and treated as described above. After 6 hours of incubation (37° C., 5% CO2), plates were removed from the incubator and let to equilibrate to RT. Luminescent signal detection was conducted using the CellTiter-Glo Lumiescent Cell Viability Assay (Promega, cat. nr G7573). 10 μL of the Cell Titer Glo reagent was added per well, plates were shaken to facilitate lysis (460 rpm, 4 min, RT) and incubated in the dark for the following 8 min. Luminescence was read using the CLARIOstar multimode plate reader (BMG LABTECH). The raw data (the relative luminescence unit values, RLU) were uploaded under the relevant protocol and analysed in CDDVault data management platform, in a manner similar to the description above. The Mean Minimum values were calculated in CDDVault using non-linear regression and appropriate equations.

By Ki is commonly meant a measure of affinity in units of concentration, obtained from inhibition or displacement.

Structures are written as SMILES.

[CK1α]-[compound]-[CRBN/DDB1] ternary complex, sequence (P48729 whole entry): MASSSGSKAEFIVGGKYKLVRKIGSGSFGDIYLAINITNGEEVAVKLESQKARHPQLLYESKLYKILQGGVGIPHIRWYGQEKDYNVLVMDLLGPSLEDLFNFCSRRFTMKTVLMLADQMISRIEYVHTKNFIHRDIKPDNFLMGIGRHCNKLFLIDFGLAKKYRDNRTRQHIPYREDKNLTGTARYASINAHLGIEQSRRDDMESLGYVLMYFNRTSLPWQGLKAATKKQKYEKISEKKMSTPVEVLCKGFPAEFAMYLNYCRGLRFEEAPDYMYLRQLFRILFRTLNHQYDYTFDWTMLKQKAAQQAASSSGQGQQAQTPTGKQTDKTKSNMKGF
[CK1α]-[compound]-[CRBN/DDB1] ternary complex, sequence (Q96SW2 whole entry): as the sequence (Q96SW2 whole entry) above
[CK1α]-[compound]-[CRBN/DDB1] ternary complex, sequence (Q16531 whole entry partner): as the sequence (Q16531 whole entry partner) above
[GSPT1]-[compound of formula (I)]-[CRBN/DDB1] complex, sequence (P15170 whole entry): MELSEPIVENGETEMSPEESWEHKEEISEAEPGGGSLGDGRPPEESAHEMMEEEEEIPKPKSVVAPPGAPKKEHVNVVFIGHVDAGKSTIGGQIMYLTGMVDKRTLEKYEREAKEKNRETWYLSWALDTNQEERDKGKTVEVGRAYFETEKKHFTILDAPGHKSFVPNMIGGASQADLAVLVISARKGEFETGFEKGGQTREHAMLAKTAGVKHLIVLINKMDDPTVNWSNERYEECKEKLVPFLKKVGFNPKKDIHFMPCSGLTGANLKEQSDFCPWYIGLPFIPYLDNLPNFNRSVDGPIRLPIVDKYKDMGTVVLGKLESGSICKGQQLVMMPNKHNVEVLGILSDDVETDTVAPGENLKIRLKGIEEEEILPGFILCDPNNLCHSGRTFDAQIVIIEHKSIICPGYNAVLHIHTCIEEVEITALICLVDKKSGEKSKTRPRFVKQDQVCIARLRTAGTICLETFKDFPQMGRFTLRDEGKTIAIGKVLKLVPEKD
[GSPT1]-[compound of formula (I)]-[CRBN/DDB1] complex, sequence (Q96SW2 whole entry): as the sequence (Q96SW2 whole entry) above
[GSPT1]-[compound of formula (I)]-[CRBN/DDB1] complex, sequence (Q16531 whole entry partner): as the sequence (Q16531 whole entry partner) above
T1 sequence (Q13422 145-167 limits assumed): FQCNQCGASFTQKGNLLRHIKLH
T1 sequence (Q96SW2 whole entry): as the sequence (Q96SW2 whole entry) above
T1 sequence (Q16531 whole entry partner): as the sequence (Q16531 whole entry partner) above
CRBN/DDB1 protein complex, sequence (Q96SW2 whole entry, species assumed): as the sequence (Q96SW2 whole entry) above
CRBN/DDB1 protein complex, sequence (Q16531 whole entry partner, species assumed): as the sequence (Q16531 whole entry partner) above

`Cc1nc2cc(COC(=O)Nc3cccc(OC(F)(F)F)c3)ccc2cc1C1CCC(=O)NC1=O` (stereo not shown) [Compound 19, (3-(2,6-dioxopiperidin-3-yl)-2-methylquinolin-7-yl)methyl (3-(trifluoromethoxy)phenyl)carbamate]: the EC50 in assay [1] is over 3160 nM. The activation at 1 µM in assay [2], in assay [3] and in assay [5] was under 10% throughout. The Ki in assay [4] is over 1000 nM. In addition, the “CTG assay Mean minimum” value in the assay on GSPT1-HiBiT HEK293 cells is listed as “++++ (++++≥75% of viability of the HiBiT-GSPT1 HEK293 cells)”.

With `Cc1ccc(NC(=O)OCc2cc3nc(C)c(C4CCC(=O)NC4=O)cc3cc2F)cc1Cl` (stereo not shown) [Compound 49, (3-(2,6-dioxopiperidin-3-yl)-6-fluoro-2-methylquinolin-7-yl)methyl (3-chloro-4-methylphenyl)carbamate], the EC50 in assay [1] is 316 to 3160 nM. Further, the activation at 1 µM in assay [2], in assay [3] and in assay [5] was under 10% each time. In addition, in assay [4], the Ki was over 1000 nM. Besides, the “CTG assay Mean minimum” value with GSPT1-HiBiT HEK293 cells is reported as “++++ (++++≥75% of viability of the HiBiT-GSPT1 HEK293 cells)”.

With `Cc1nc2cc(COC(=O)Nc3ccc(C(C)(C)C)c(Cl)c3)ccc2cc1C1CCC(=O)NC1=O` (stereo not shown) [Compound 10, (3-(2,6-dioxopiperidin-3-yl)-2-methylquinolin-7-yl)methyl (4-(tert-butyl)-3-chlorophenyl)carbamate], in assay [1], the EC50 was under 316 nM. Further, the activation at 1 µM in assay [2], in assay [3] and in assay [5] was under 10% in each case. The Ki in assay [4] is under 500 nM. Moreover, the “CTG assay Mean minimum” value in the assay with GSPT1-HiBiT HEK293 cells is listed as “++++ (++++≥75% of viability of the HiBiT-GSPT1 HEK293 cells)”.

Take `Cc1nc2cc(COC(=O)Nc3cc(OC(F)(F)F)ccc3F)ccc2cc1C1CCC(=O)NC1=O` (stereo not shown) [Compound 6, (3-(2,6-dioxopiperidin-3-yl)-2-methylquinolin-7-yl)methyl (2-fluoro-5-(trifluoromethoxy)phenyl)carbamate]: in assay [1], the EC50 is 316 to 3160 nM. Also, the activation at 1 µM in assay [2], in assay [3] and in assay [5] was under 10% in each case. Also, in assay [4], the Ki is over 1000 nM. Further, in the assay with GSPT1-HiBiT HEK293 cells, the “CTG assay Mean minimum” value was “++++ (++++≥75% of viability of the HiBiT-GSPT1 HEK293 cells)”.

For `Cc1nc2ccc(COC(=O)Nc3cc(C(C)(C)C)no3)cc2cc1N1CCC(=O)NC1=O` [Compound 66, (3-(2,4-dioxotetrahydropyrimidin-1(2H)-yl)-2-methylquinolin-6-yl)methyl (3-(tert-butyl)isoxazol-5-yl)carbamate], the EC50 in assay [1] was 316 to 3160 nM. Further, the activation at 1 µM was 25 to 50% in assay [2], 10 to 25% in assay [3] and 10 to 25% in assay [5]. In addition, the inhibition constant Ki in assay [4] is under 500 nM. In addition, the “CTG assay Mean minimum” value in the assay on GSPT1-HiBiT HEK293 cells is “++++ (++++≥75% of viability of the HiBiT-GSPT1 HEK293 cells)”.

For `Cc1nc2cc(COC(=O)Nc3cc(Cl)c(C)c(CN4CCOCC4)c3)ccc2cc1C1CCC(=O)NC1=O` (stereo not shown) [Compound 17, (3-(2,6-dioxopiperidin-3-yl)-2-methylquinolin-7-yl)methyl (3-chloro-4-methyl-5-(morpholinomethyl)phenyl)carbamate], the EC50 in assay [1] is under 316 nM. Besides, the activation at 1 µM in assay [2], in assay [3] and in assay [5] was under 10% each time. Besides, the inhibitory constant (Ki) in assay [4] was under 500 nM. Moreover, the “CTG assay Mean minimum” value in the assay with GSPT1-HiBiT HEK293 cells is on record as “++++ (++++≥75% of viability of the HiBiT-GSPT1 HEK293 cells)”.

For the compound `Cc1ccc(NC(=O)OCc2cc(F)c3cc(C4CCC(=O)NC4=O)c(C)nc3c2)cc1Cl` (stereo not shown) [Compound 22, (3-(2,6-dioxopiperidin-3-yl)-5-fluoro-2-methylquinolin-7-yl)methyl (3-chloro-4-methylphenyl)carbamate], the EC50 in assay [1] is 316 to 3160 nM. Moreover, the activation at 1 µM in assay [2], in assay [3] and in assay [5] was under 10% in each case. The Ki in assay [4] is over 1000 nM. Besides, the “CTG assay Mean minimum” value in the assay on GSPT1-HiBiT HEK293 cells was “++++ (++++≥75% of viability of the HiBiT-GSPT1 HEK293 cells)”.

Turning to `Cc1ccc(NC(=O)OCc2ccc3cc(C4(F)CCC(=O)NC4=O)c(C)nc3c2)cc1Cl` (stereo not shown) [Compound 74, (3-(3-fluoro-2,6-dioxopiperidin-3-yl)-2-methylquinolin-7-yl)methyl (3-chloro-4-methylphenyl)carbamate], the EC50 in assay [1] is over 3160 nM. Besides, the activation at 1 µM in assay [2], in assay [3] and in assay [5] was under 10% throughout. The Ki in assay [4] was over 1000 nM. Besides, the “CTG assay Mean minimum” value with GSPT1-HiBiT HEK293 cells is “++++ (++++≥75% of viability of the HiBiT-GSPT1 HEK293 cells)”.

In the case of `Cc1ccc(NC(=O)OCc2ccc3cc([C@H]4CCC(=O)NC4=O)c(C)nc3c2)cc1Cl` [Compound 39, (3-(2,6-dioxopiperidin-3-yl)-2-methylquinolin-7-yl)methyl (3-chloro-4-methylphenyl)carbamate], the EC50 in assay [1] is 316 to 3160 nM. The activation at 1 µM in assay [2], in assay [3] and in assay [5] was under 10% throughout. For the same compound, in assay [4], the Ki is 500 to 1000 nM. The “CTG assay Mean minimum” value in the assay with GSPT1-HiBiT HEK293 cells was “++++ (++++≥75% of viability of the HiBiT-GSPT1 HEK293 cells)”.

With `Cc1ccc(NC(=O)OCc2ccc3nc(C)c(C4CCC(=O)NC4=O)cc3c2)cc1Cl` (stereo not shown) [Compound 5, (3-(2,6-dioxopiperidin-3-yl)-2-methylquinolin-6-yl)methyl (3-chloro-4-methylphenyl)carbamate], the EC50 in assay [1] was over 3160 nM. The activation at 1 µM in assay [2] was 25 to 50%; in assay [3], under 10%; in assay [5], 10 to 25%. Moreover, the Ki in assay [4] is under 500 nM.

Consider `Cc1ccc(NC(=S)NCc2ccc3cc(C4CCC(=O)NC4=O)c(C)nc3c2)cc1Cl` (stereo not shown) [Compound 2, 1-(3-chloro-4-methylphenyl)-3-((3-(2,6-dioxopiperidin-3-yl)-2-methylquinolin-7-yl)methyl)thiourea], for which the EC50 in assay [1] is over 3160 nM. Besides, the activation at 1 µM in assay [2], in assay [3] and in assay [5] was under 10% throughout. The Ki in assay [4] was 500 to 1000 nM.
